# Results from patent publication US11795177B2, “Substituted quinoline analogs as aldehyde dehydrogenase 1A1 (ALDH1A1) inhibitors” (THE UNITED STATES OF AMERICA, AS REPRESENTED BY THE …, priority 2017, dated 2023).
# Structures can show the parent of a compound that is named as a salt.
# Tests used:
# [1] = test system: MIA PaCa-2 cells; test: MIA PaCa2 cell-based assay (1,536-well high-content imaging ALDEFLUOR assay); design: species or system human; details: Homo sapiens, 0.5 h, ALDEFLUOR BAAA substrate 500 nM, 30 minutes
# In short: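 High-content ALDEFLUOR imaging readout: BAA-retaining cells in FITC channel scored against Hoechst-counted nuclei. Before imaging, MIA PaCa-2 cells seeded at 1,000 per well received final 500 nM BAAA and 0.5 nM Hoechst with compounds in 16-point series (1.4 nM to 47.8 μM), 30 min, 37° C.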
# [2] = target: T1, ALDH1A1 enzyme (Homo sapiens, UniProt P00352); test: ALDH1A1 enzymatic assay (in vitro); format: biochemical; details: ALDH1A1 enzyme 20 nM, NAD+ 1 mM, propionaldehyde 80 μM; read-out: ALDH1A1 IC50
# T1 sequence (P00352 1-501): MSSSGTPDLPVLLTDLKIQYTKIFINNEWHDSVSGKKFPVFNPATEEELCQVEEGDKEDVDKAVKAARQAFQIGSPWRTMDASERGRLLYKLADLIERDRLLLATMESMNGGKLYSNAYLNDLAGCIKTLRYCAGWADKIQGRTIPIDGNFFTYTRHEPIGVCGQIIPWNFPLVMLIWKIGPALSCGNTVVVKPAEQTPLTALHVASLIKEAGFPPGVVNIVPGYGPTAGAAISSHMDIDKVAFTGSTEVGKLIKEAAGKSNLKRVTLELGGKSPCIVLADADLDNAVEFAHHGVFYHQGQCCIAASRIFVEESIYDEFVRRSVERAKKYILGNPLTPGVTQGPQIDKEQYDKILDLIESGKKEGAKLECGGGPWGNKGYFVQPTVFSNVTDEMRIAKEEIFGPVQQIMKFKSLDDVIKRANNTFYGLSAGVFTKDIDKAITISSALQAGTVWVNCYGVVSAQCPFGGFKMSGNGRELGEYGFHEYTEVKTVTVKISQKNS
# In short: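 ALDH1A1 (20 nM final) in 100 mM HEPES pH 7.5, 0.01% Tween 20 was preincubated 15 min at RT with compound (968 pM–57.2 μM final), then started with 1 mM NAD+ and 80 μM propionaldehyde. NADH fluorescence (ex 340/em 450 nm) followed kinetically for 10 min; change normalized to no-inhibitor and no-enzyme controls for percent inhibition and curve fitting.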
IC50 [1] [nM],IC50 [2] [nM],SMILES
1000 to 10000,< 500,"COc1ccc2ncc(C(=O)N3CCN(C(C)=O)CC3)c(N3CCC4(CC3)OCCO4)c2c1 [Example 38, 1-(4-(6-methoxy-4-(1,4-dioxa-8-azaspiro[4.5]decan-8-yl)quinoline-3-carbonyl)piperazin-1-yl)ethanone]"
1000 to 10000,< 500,"CS(=O)(=O)N1CCN(C(=O)c2cnc3c(F)cc(F)cc3c2N2CCC3(CC2)OCCO3)CC1 [Example 131, (6,8-difluoro-4-(1,4-dioxa-8-azaspiro[4.5]decan-8-yl)quinolin-3-yl)(4-(methylsulfonyl)piperazin-1-yl)methanone]"
< 500,< 500,"CN(C)S(=O)(=O)N1CCN(C(=O)c2cnc3ccc(Cl)cc3c2N2CCC(C#N)(c3ccccc3)CC2)CC1 [Cpd. 314, 4-(6-chloro-4-(4-cyano-4-phenylpiperidin-1-yl)quinoline-3-carbonyl)-N,N-dimethylpiperazine-1-sulfonamide]"
> 10000,< 500,"COc1ccc2ncc(C(=O)N3CCN(c4cccnc4)CC3)c(N3CCC4(CC3)OCCO4)c2c1 [Example 14, (6-methoxy-4-(1,4-dioxa-8-azaspiro[4.5]decan-8-yl)quinolin-3-yl)(4-(pyridin-3-yl)piperazin-1-yl)methanone, TFA]"
1000 to 10000,< 500,"N#CC1(c2ccc(-c3c(C(=O)N4CCC(O)(CO)CC4)cnc4ccc(F)cc34)cc2)CC1 [Cpd. 354, 1-(4-(6-fluoro-3-(4-hydroxy-4-(hydroxymethyl)piperidine-1-carbonyl)quinolin-4-yl)phenyl)cyclopropane-1-carbonitrile]"
1000 to 10000,< 500,"CC1(C#N)CCN(c2c(C(=O)N3CCN(S(=O)(=O)C4CC4)CC3)cnc3ccc(Cl)cc23)CC1 [Example 120, 1-(6-chloro-3-(4-(cyclopropylsulfonyl)piperazine-1-carbonyl)quinolin-4-yl)-4-methylpiperidine-4-carbonitrile]"
1000 to 10000,< 500,"C[C@@H]1CN(C(=O)C2CC2)CCN1C(=O)c1cnc2ccc(F)cc2c1N1CCC(C)(C#N)CC1 [Example 239, (R)-1-(3-(4-(cyclopropanecarbonyl)-2-methylpiperazine-1-carbonyl)-6-fluoroquinolin-4-yl)-4-methylpiperidine-4-carbonitrile]"

# The remaining lines, values behind:
SMILES,IC50 [1] [nM],IC50 [2] [nM]
"CN(C)C(=O)N1CCN(C(=O)c2cnc3cc(F)c(F)cc3c2N2CCC(C)(C#N)CC2)CC1 [Example 184, 4-(4-(4-cyano-4-methylpiperidin-1-yl)-6,7-difluoroquinoline-3-carbonyl)-N,N-dimethylpiperazine-1-carboxamide]",1000 to 10000,< 500
"CN(C)S(=O)(=O)N1CCN(C(=O)c2cnc3c(F)cc(F)cc3c2N2CCC3(CC2)OCCO3)CC1 [Example 162, 4-(6,8-difluoro-4-(1,4-dioxa-8-azaspiro[4.5]decan-8-yl)quinoline-3-carbonyl)-N,N-dimethylpiperazine-1-sulfonamide]",500 to 1000,< 500
"COc1ccc2ncc(C(=O)N3CCN(C(=O)C(C)C)CC3)c(N3CCC4(CC3)OCCO4)c2c1 [Example 5, 1-(4-(6-methoxy-4-(1,4-dioxa-8-azaspiro[4.5]decan-8-yl)quinoline-3-carbonyl)piperazin-1-yl)-2-methylpropan-1-one, TFA]",> 10000,< 500
"COc1ccc2c(N3CCC4(CC3)OCCO4)c(C(=O)N3CCN(S(C)(=O)=O)CC3)cnc2c1 [Example 129, (7-methoxy-4-(1,4-dioxa-8-azaspiro[4.5]decan-8-yl)quinolin-3-yl)(4-(methylsulfonyl)piperazin-1-yl)methanone]",1000 to 10000,< 500
"N#CCC1CCN(c2c(C(=O)N3CCN(C(=O)C4CC4)CC3)cnc3ccc(F)cc23)CC1 [Example 213, 2-(1-(3-(4-(cyclopropanecarbonyl)piperazine-1-carbonyl)-6-fluoroquinolin-4-yl)piperidin-4-yl)acetonitrile]",1000 to 10000,1000 to 10000
"COc1ccc2ncc(C(=O)N3CCN(C(=O)C4CC4)CC3)c(N3CCC(C(F)(F)F)CC3)c2c1 [Example 28, (4-(cyclopropanecarbonyl)piperazin-1-yl)(6-methoxy-4-(4-(trifluoromethyl)piperidin-1-yl)quinolin-3-yl)methanone]",> 10000,1000 to 10000
"CS(=O)(=O)N1CCN(C(=O)c2cnc3ccc(F)cc3c2N2CCC(C#N)(c3cccs3)CC2)CC1 [Cpd. 356, 1-(6-fluoro-3-(4-(methylsulfonyl)piperazine-1-carbonyl)quinolin-4-yl)-4-(thiophen-2-yl)piperidine-4-carbonitrile]",< 500,< 500
"CS(=O)(=O)C1CCN(C(=O)c2cnc3cc(F)c(F)cc3c2N2CCC3(CC2)OCCO3)CC1 [Example 187, (6,7-difluoro-4-(1,4-dioxa-8-azaspiro[4.5]decan-8-yl)quinolin-3-yl)(4-(methylsulfonyl)piperidin-1-yl)methanone]",1000 to 10000,< 500
"CCN(CC)C(=O)N1CCN(C(=O)c2cnc3c(F)cc(F)cc3c2N2CCC(C)(C#N)CC2)CC1 [Example 164, 4-(4-(4-cyano-4-methylpiperidin-1-yl)-6,8-difluoroquinoline-3-carbonyl)-N,N-diethylpiperazine-1-carboxamide]",1000 to 10000,500 to 1000
"CC(C)C1CCN(c2c(C(=O)N3CCN(C(=O)C4CC4)CC3)cnc3ccc(F)cc23)CC1 [Example 74, (4-(cyclopropanecarbonyl)piperazin-1-yl)(6-fluoro-4-(4-isopropylpiperidin-1-yl)quinolin-3-yl)methanone]",1000 to 10000,< 500
"CN(C)S(=O)(=O)N1CCN(C(=O)c2cnc3cc(F)c(F)cc3c2N2CCC(C)(C#N)CC2)CC1 [Example 177, 4-(4-(4-cyano-4-methylpiperidin-1-yl)-6,7-difluoroquinoline-3-carbonyl)-N,N-dimethylpiperazine-1-sulfonamide]",< 500,< 500
"CNC(=O)C1CCN(C(=O)c2cnc3ccc(F)cc3c2-c2ccc(C3(C#N)CC3)cc2)CC1 [Cpd. 333, 1-(4-(4-(1-cyanocyclopropyl)phenyl)-6-fluoroquinoline-3-carbonyl)-N-methylpiperidine-4-carboxamide]",< 500,< 500
"CCNC(=O)N1CCN(C(=O)c2cnc3ccccc3c2N2CCC(C)(C#N)CC2)CC1 [Example 99, 4-(4-(4-cyano-4-methylpiperidin-1-yl)quinoline-3-carbonyl)-N-ethylpiperazine-1-carboxamide]",> 10000,1000 to 10000
"N#CC1(c2ccc(-c3c(C(=O)N4CC5(C4)CS(=O)(=O)C5)cnc4ccc(F)cc34)cc2)CC1 [Cpd. 332, 1-(4-(3-(2,2-dioxido-2-thia-6-azaspiro[3.3]heptane-6-carbonyl)-6-fluoroquinolin-4-yl)phenyl)cyclopropane-1-carbonitrile]",1000 to 10000,< 500
"CS(=O)(=O)N1CCN(C(=O)c2cnc3c(F)c(F)c(F)cc3c2N2CCC3(CC2)OCCO3)CC1 [Example 134, (4-(methylsulfonyl)piperazin-1-yl)(6,7,8-trifluoro-4-(1,4-dioxa-8-azaspiro[4.5]decan-8-yl)quinolin-3-yl)methanone]",1000 to 10000,< 500
